The results in this text go back to patent publication US8846788B2, “Polyacetal resin composition, resin molded article, and method and agent for improving polyacetal resin raw material composition” (Mitsubishi Engineering-Plastics Corporation, priority 2008, dated 2014).

One data set can be described thus: Vapor pressure at 20° C. Type of data set: physicochemical.
Settings: not given
Take `CC(C)(c1ccccc1)c1cc(-n2nc3ccccc3n2)c(O)c(C(C)(C)c2ccccc2)c1` [Tinuvin 234, 2-(2H-benzotriazol-2-yl)-4,6-bis(1-methyl-1-phenylethyl)phenol]: the vapor pressure is listed as 2.0×10^−10 Pa.

The nature of a further data set: Solubility relative to 100 g of water at 20° C. Type of data set: physicochemical. The conditions noted are these: per 100 g of water.
On to `NNC(=O)c1ccc(C(=O)NN)cc1` [Dihydrazide compound-1, terephthalic acid dihydrazide], for which the “solubility relative to 100 g of water” value was ≤ 0.01 g.

For `NNC(=O)C(=O)NN` [oxalic acid dihydrazide], the “solubility relative to 100 g of water” value is reported as ≤ 0.2 g.

For the compound `NNC(=O)CCCCCCCCCCCCCCCCCCC(=O)NN` [1,18-octadecane dicarbohydrazide], the “solubility relative to 100 g of water” value is reported as ≤ 0.1 g.

For the compound `NNC(=O)CCCCCCCCCCC(=O)NN` [Dihydrazide compound-2, 1,10-dodecane diacid dihydrazide], the “solubility relative to 100 g of water” value is given as ≤ 0.01 g.

On to `NNC(=O)CCCCC(=O)NN` [Dihydrazide compound-3, adipic acid dihydrazide, reference compound], for which the “solubility relative to 100 g of water” value was 9.1 g.
